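Step 1: Grow cells in 96-well plates. Step 2: Expose to compound for 48 hours at 5 concentrations. Step 3: Interpolate endpoints linearly; if unreached, use highest concentration. GI50 is the concentration that inhibits growth by half.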 Calls of active or inactive are those of the source. Rule as the data show it: active = GI50 up to about 1.1 µM and inactive = higher.
What was measured:
Experiment in all cases: DTP human tumour cell line panel, 48 h
[1] = tested on: CAKI-1
[2] = tested on: MCF7
[3] = tested on: A498
[4] = tested on: SK-MEL-28
[5] = tested on: SK-MEL-2
[6] = tested on: U-251
[7] = tested on: PC-3
[8] = tested on: OVCAR-3
[9] = tested on: SNB-75
[10] = tested on: HCC 2998
[11] = tested on: HCT-15
[12] = tested on: MDA-MB-435
[13] = tested on: MDA-N
[14] = tested on: OVCAR-5
[15] = tested on: ACHN
[16] = tested on: SW-620
[17] = tested on: SN12C
[18] = tested on: MOLT-4
[19] = tested on: T47D
[20] = tested on: UO-31

| Compound | GI50 [1] | GI50 [2] | GI50 [3] | GI50 [4] | GI50 [5] | GI50 [6] | GI50 [7] | GI50 [8] | GI50 [9] | GI50 [10] | GI50 [11] [µM] | GI50 [12] | GI50 [13] | GI50 [14] | GI50 [15] | GI50 [16] | GI50 [17] | GI50 [18] | GI50 [19] | GI50 [20] |
| --- | --- | --- | --- | --- | --- | --- | --- | --- | --- | --- | --- | --- | --- | --- | --- | --- | --- | --- | --- | --- |
| COc1cc(N(C)C)c(OC)cc1/C=C\c1ccnc2ccccc12 | 6.38 µM (inactive) | 0.462 µM (active) | 3.1 µM (inactive) | 1.86 µM (inactive) | 2.66 µM (inactive) | 5.04 µM (inactive) | 2.92 µM (inactive) | 1.72 µM (inactive) | 2.57 µM (inactive) | 3.62 µM (inactive) | 0.652 | 1.75 µM (inactive) | 1.71 µM (inactive) | > 10 µM (inactive) | 6.12 µM (inactive) | 4.68 µM (inactive) | 6.32 µM (inactive) | 3.4 µM (inactive) | 0.344 µM (active) | > 10 µM (inactive) |
| C[C@H](CCC(=O)O)[C@H]1CC[C@H]2[C@@H]3[C@H](O)C[C@@H]4C[C@H](O)CC[C@]4(C)[C@H]3C[C@H](O)[C@]12C | > 100 µM (inactive) | > 100 µM (inactive) | > 100 µM (inactive) | > 100 µM (inactive) | > 100 µM (inactive) | > 100 µM (inactive) | > 100 µM (inactive) | > 100 µM (inactive) | > 100 µM (inactive) | > 100 µM (inactive) | > 100 | > 100 µM (inactive) | > 100 µM (inactive) | > 100 µM (inactive) | > 100 µM (inactive) | > 100 µM (inactive) | > 100 µM (inactive) | > 100 µM (inactive) | > 100 µM (inactive) | > 100 µM (inactive) |
| Cc1cn(C2CC(N)C(CN)O2)c(=O)[nH]c1=O (stereo not given) | > 100 µM (inactive) | > 100 µM (inactive) | > 100 µM (inactive) | > 100 µM (inactive) | > 100 µM (inactive) | > 100 µM (inactive) | > 100 µM (inactive) | > 100 µM (inactive) | 38.5 µM (inactive) | > 100 µM (inactive) | > 100 | > 100 µM (inactive) | 35.6 µM (inactive) | > 100 µM (inactive) | > 100 µM (inactive) | > 100 µM (inactive) | 80.7 µM (inactive) | > 100 µM (inactive) | 37.8 µM (inactive) | > 100 µM (inactive) |
| O=[N+]([O-])c1ccccc1S(=O)(=O)c1ccccc1[N+](=O)[O-] | > 100 µM (inactive) | > 100 µM (inactive) | > 87.7 µM (inactive) | > 100 µM (inactive) | > 100 µM (inactive) | 28.9 µM (inactive) | > 100 µM (inactive) | > 100 µM (inactive) | 21 µM (inactive) | > 100 µM (inactive) | > 100 | > 100 µM (inactive) | > 100 µM (inactive) | > 10 µM (inactive) | > 90.8 µM (inactive) | > 56.2 µM (inactive) | > 100 µM (inactive) | > 100 µM (inactive) | > 100 µM (inactive) | > 82.2 µM (inactive) |
| C/C(=N/CC(=O)O)c1ccccc1 | > 100 µM (inactive) | > 100 µM (inactive) | > 100 µM (inactive) | > 100 µM (inactive) | > 100 µM (inactive) | > 100 µM (inactive) | > 100 µM (inactive) | > 100 µM (inactive) | > 100 µM (inactive) | 39.8 µM (inactive) | > 100 | > 100 µM (inactive) | > 100 µM (inactive) | > 100 µM (inactive) | > 100 µM (inactive) | > 100 µM (inactive) | > 100 µM (inactive) | 70.5 µM (inactive) | > 100 µM (inactive) | 97.5 µM (inactive) |
| Cc1ccc(C(=O)CCl)o1 | 3.12 µM (inactive) | 3.52 µM (inactive) | > 10 µM (inactive) | > 10 µM (inactive) | > 10 µM (inactive) | > 10 µM (inactive) | > 10 µM (inactive) | > 7.23 µM (inactive) | > 9.46 µM (inactive) | > 10 µM (inactive) | 4.93 | 3.25 µM (inactive) | > 7.08 µM (inactive) | > 5.6 µM (inactive) | > 10 µM (inactive) | 2.3 µM (inactive) | 3.69 µM (inactive) | 2.13 µM (inactive) | 4.61 µM (inactive) | > 4.67 µM (inactive) |
| NC(Cc1ccc(O)c(O)c1)P(=O)(O)O (stereo not given) | > 100 µM (inactive) | > 10 µM (inactive) | > 100 µM (inactive) | > 100 µM (inactive) | > 100 µM (inactive) | > 100 µM (inactive) | > 100 µM (inactive) | > 100 µM (inactive) | > 100 µM (inactive) | > 100 µM (inactive) | > 100 | > 100 µM (inactive) | > 100 µM (inactive) | > 100 µM (inactive) | > 100 µM (inactive) | 20.1 µM (inactive) | > 100 µM (inactive) | > 100 µM (inactive) | 18 µM (inactive) | > 100 µM (inactive) |

Reference: ChEMBL document CHEMBL1201862, “PubChem BioAssay data set” (2004)
